The source of these data is US20180153995A1, “USE OF ANTIMICROBIAL POLYMERS FOR RE-SENSITIZATION OF MICROORGANISMS UPON EMERGENCE OF RESISTANCE TO ANTI-MICROBIAL AGENTS” (Technion Research & Development Foundation Limited, priority 2008, published 2018).

Converted amounts (≈) assume the structure as drawn. Like-named read-outs stand apart in the source and are kept apart here. Square brackets hold non-standard residues; d marks the D form. Peptide text beside a SMILES is read from it. 12Ado = NCCCCCCCCCCCC(=O)O

The test system of test [1] is MRSA 15903. Nature of the test: microbe, parasite or virus in culture. The format is cell-based, Staphylococcus aureus. To be noted: for MIC, ¼ + MIC OAK: with C12K(KNC10K)3NH2 (SEQ ID NO: 10) at ¼ of its MIC; for MIC, ½ + MIC OAK: with C12K(KNC10K)3NH2 (SEQ ID NO: 10) at ½ of its MIC; for MIC, ⅓ + MIC OAK: with C12K(KNC10K)3NH2 (SEQ ID NO: 10) at ⅓ of its MIC. As to the method:
(§1) The fractionary inhibitory (FIC) concentration index for combinations of two antimicrobial agents was calculated as follows: FIC index=FICA+FICB=A/MICA+B/MICB where A and B are the MIC values of agent A and agent B in the combination, MICA and MICB are the MICs of agent A and agent B alone, and FICA and FICB are the FICs of agent A and agent B.
(§2) The FIC indexes were interpreted as follows: less than 0.5 indicates a clear re-sensitizing effect; from 0.5 to 4 indicates a marginal or null re-sensitizing effect; and over 4 indicates antagonism.
Experimental data for FIG. 4 were obtained as follows.

Test [2] concerns MRSA 15903. Nature of the test: Sub-MIC time-kill curves (CFU counts). The test is classed as cell-based, Staphylococcus aureus. The settings on record: sub-MIC time-kill, single agent. As to the method:
At the specified time points of incubation (37° C. under shaking), cultures were subjected to serial 10-fold dilutions (up to 10^6) by adding 50 μl of sample to 450 μl saline (0.85% NaCl). Cell counts were determined using the drop plate method (three 20-μl drops onto LB-agar plates). Plates were incubated at 37° C. and colonies were counted for the calculation after incubation for 24 hours.

Another test concerns MRSA 15918. Nature of the test: microbe, parasite or virus in culture. The test is classed as cell-based, Staphylococcus aureus. The settings on record: 15918. The procedure: (§3) MICs were determined by microdilution susceptibility testing in 96-well plates (by Nunc) using inocula of 10^5 bacteria per ml. Cell populations were evaluated by optical density measurements at 620 nm and were calibrated against a set of standards. Hundred (100) μl of a bacterial suspension were added to 100 μl of culture medium (control) or to 100 μl of culture medium containing various polymer concentrations in 2-fold serial dilutions. Inhibition of proliferation was determined by optical density measurements at 620 nm after an incubation period of 24 hours at 37° C.
as §1, §2

Another test relates to ATCC 29213. The experiment in a line: microbe, parasite or virus in culture. The test is classed as cell-based, Staphylococcus aureus. The settings on record: ATCC 29213. As to the method: as §3, §1, §2
In another test the test system is MRSA 15852. The test is classed as cell-based, Staphylococcus aureus. The settings on record: 15852. As to the method: as §1, §2
Another test concerns ATCC 25923. Nature of the test: microbe, parasite or virus in culture. The test is classed as cell-based, Staphylococcus aureus. To be noted: ATCC 25923. As to the method: as §3
Test [3] deals with various strains of S. aureus, E. coli P. aeruginosa, P. mirabilis and S. maltophila. The test is classed as cell-based. The settings on record: strain not stated. The procedure: Antibacterial activity was determined using various strains of S. aureus, E. coli P. aeruginosa, P. mirabilis and S. maltophila, cultured in LB medium (10 grams/liter trypton, 5 grams/liter yeast extract, 5 grams/liter NaCl, pH 7.4). Bacterial strains include susceptible strains of Staphylococcus aureus, Pseudomonas aeruginosa, Bacillus cereus and Escherichia coli (ATCC, American Type Culture Collection), as well as antibiotic-resistant strains such as oxacillin-resistant Staphylococcus aureus (ORSA) and methicillin-resistant Staphylococcus aureus (MRSA).
as §3

Where [4] appears, read: Staphylococcus aureus, MRSA, 24 h, MRSA 15903, antibiotic alone (Table 22), read-out: MIC, Alone.

For the compound `CO/N=C(\C(=O)N[C@@H]1C(=O)N2C(C(=O)O)=C(COC(C)=O)CS[C@H]12)c1csc(N)n1` [cefotaxime], in the test with MRSA 15903 [1] (MRSA 15903), the “MIC, ¼ + MIC OAK” value amounted to 32 µg/mL; the “MIC, ½ + MIC OAK” value came to 4 µg/mL; the “MIC, ⅓ + MIC OAK” value was found to be 16 µg/mL. In the test with MRSA 15903 [1] (setting [4]), the MIC amounted to 32 µg/mL.

Turning to `NCCCCCCCCCCCC(=O)N[C@@H](CCCCN)C(=O)NCCCCCCCCCCCC(=O)N[C@@H](CCCCN)C(=O)N[C@@H](CCCCN)C(=O)NCCCCCCCCCCCC(=O)N[C@@H](CCCCN)C(N)=O` [NC12(KNC12K)2NH2] (H-[12Ado]K[12Ado]KK[12Ado]K-NH2), the “bactericidal activity, agent alone” value in the test with MRSA 15903 [2] is on record as “no bactericidal activity”. The MIC with MRSA 15918 amounted to 6.2 µM; with ATCC 29213 it was 3.1 µM; in the test on MRSA 15852 it was 3.1 µM; against ATCC 25923 it was 3.1 µM (≈ 3.48 µg/mL); in the test with MRSA 15903 [1] (15903), 6.2 µM. In addition, in the test on MRSA 15903 [1] (MRSA 15903, polymer + sub-MIC oxacillin), the “improvement (decrease) in the polymer's MIC in presence of oxacillin” value is listed as “twofold”. In addition, the MIC of polymer in the test with MRSA 15903 [1] (MRSA 15903, polymer alone) is 6.25 µM. The “optimal re-sensitization polymer concentration” value with MRSA 15903 [1] (MRSA 15903, with oxacillin) worked out at 2.1 µM.

With `CCCCCCC=CCCCCCCCC(=O)N[C@@H](CCCCN)C(=O)N[C@@H](CCCCN)C(=O)NCCCCCCCCCCCC(=O)N[C@@H](CCCCN)C(N)=O` [C16(9-ene)KKNC12KNH2], the “MIC of polymer per se” value in test [3] was 6.2 µM.

Consider `CCCCC=CCCCCCCCC(=O)N[C@@H](CCCCN)C(=O)N[C@@H](CCCCN)C(=O)NCCCCCCCCCCCC(=O)N[C@@H](CCCCN)C(N)=O` [C14(9-ene)KKNC12KNH2], for which the “MIC of polymer per se” value in test [3] was found to be 6.2 µM.

For the compound `Cc1nnc(SCC2=C(C(=O)O)N3C(=O)[C@@H](NC(=O)Cn4cnnn4)[C@H]3SC2)s1` [cefazolin], in the test with MRSA 15903 [1] (MRSA 15903), the “MIC, ¼ + MIC OAK” value was determined as 16 µg/mL; the “MIC, ½ + MIC OAK” value lay in the range of 2 to 4 µg/mL; the “MIC, ⅓ + MIC OAK” value is 8 to 16 µg/mL. Further, the MIC in the test with MRSA 15903 [1] (setting [4]) was found to be 16 µg/mL.
